Measured values from US20200290950A1, “ALKAMIDE COMPOUNDS AND USES THEREOF” (NORTH CAROLINA STATE UNIVERSITY, priority 2017, published 2020).

Legend:
TRPA1 = target: T1, TRPA1 (Mus musculus, UniProt Q8BLA8); experiment: Calcium response of DRG neurons to mustard (allyl isothiocyanate); format: cell-based; settings: cultured DRG neurons, fluorescence microscopy
T1 construct: The receptors TRPA1 and TRPV1 are expressed on neurons; from tissue; host or cells: primary dorsal root ganglion neurons from mice
T1 sequence (Q8BLA8 whole entry): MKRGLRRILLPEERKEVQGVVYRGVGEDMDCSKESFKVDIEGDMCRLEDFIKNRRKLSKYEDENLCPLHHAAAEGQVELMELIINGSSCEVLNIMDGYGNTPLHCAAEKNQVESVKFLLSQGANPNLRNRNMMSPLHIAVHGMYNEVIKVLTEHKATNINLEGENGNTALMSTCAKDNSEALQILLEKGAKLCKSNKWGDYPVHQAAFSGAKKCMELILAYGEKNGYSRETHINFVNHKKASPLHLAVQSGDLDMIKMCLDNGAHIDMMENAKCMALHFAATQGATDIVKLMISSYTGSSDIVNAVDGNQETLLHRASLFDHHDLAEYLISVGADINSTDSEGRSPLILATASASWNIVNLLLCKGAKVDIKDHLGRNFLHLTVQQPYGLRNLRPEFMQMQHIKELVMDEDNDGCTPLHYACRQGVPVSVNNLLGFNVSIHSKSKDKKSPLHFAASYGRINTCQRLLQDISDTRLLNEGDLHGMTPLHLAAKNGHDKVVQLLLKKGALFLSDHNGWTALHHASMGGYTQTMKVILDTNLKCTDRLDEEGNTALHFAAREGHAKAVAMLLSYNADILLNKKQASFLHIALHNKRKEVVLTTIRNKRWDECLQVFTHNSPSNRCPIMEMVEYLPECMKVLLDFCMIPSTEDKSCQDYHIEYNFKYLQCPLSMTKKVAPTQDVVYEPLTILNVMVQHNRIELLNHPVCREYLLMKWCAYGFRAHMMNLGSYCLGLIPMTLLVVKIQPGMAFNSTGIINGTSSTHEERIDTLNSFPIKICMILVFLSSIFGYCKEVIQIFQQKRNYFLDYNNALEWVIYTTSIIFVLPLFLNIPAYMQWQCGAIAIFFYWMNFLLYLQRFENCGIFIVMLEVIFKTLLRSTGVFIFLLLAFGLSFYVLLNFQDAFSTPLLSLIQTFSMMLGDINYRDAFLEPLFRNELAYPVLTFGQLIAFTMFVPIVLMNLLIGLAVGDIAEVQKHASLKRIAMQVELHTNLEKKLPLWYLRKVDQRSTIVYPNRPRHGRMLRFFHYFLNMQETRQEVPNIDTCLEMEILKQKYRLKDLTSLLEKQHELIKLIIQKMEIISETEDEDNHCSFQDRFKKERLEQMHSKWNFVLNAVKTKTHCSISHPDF
Text: FIG. 11. Calcium response from DRG sensory neurons to alkamide of transient receptors. Mustard a TRPA1-receptor agonist activates DRG neurons in gray (A) and capsaicin, an agonist for TRPV1-receptors in the DRG neurons in red (B). Ligand A15 inhibits both TRPA1 and TRPV1 receptors activation in orange; however, 85Y a synthetic ligand only reduces the inhibition of TRPA1 but not TRPV1 receptors in blue. Total number of neurons (n)=135-145; p≤0.05.
Several different model systems were utilized for these experiments. In one model, dorsal root ganglia were obtained from mice and the neurons cultured in vitro. The neurons were then stimulated in the presence/absence of A15 and YM8-85 and the calcium responses monitored by fluorescence microscopy. In the second model, the alkamides were applied to mouse skin in mineral oil. The reactions of these mice to heat, cold, and tactile stimulation was then compared with mice that had not received treatment with A15. […] Alkamides were applied to sensitized animals and then ear swelling and bouts of scratching were monitored.
In vitro DRG neuron responses. […] Neurons were stimulated with mustard (allyl isothiocyanate) (A) an agonist for the receptor TRPA-1 or capsaicin (B) an agonist for the receptor TRPV-1 and calcium responses were measured in individual neurons by fluorescence microscopy. […]

TDI-induced ear swelling = format: in vivo, mouse
Text: (§1) Several different model systems were utilized for these experiments. In one model, dorsal root ganglia were obtained from mice and the neurons cultured in vitro. The neurons were then stimulated in the presence/absence of A15 and YM8-85 and the calcium responses monitored by fluorescence microscopy. In the second model, the alkamides were applied to mouse skin in mineral oil. The reactions of these mice to heat, cold, and tactile stimulation was then compared with mice that had not received treatment with A15. In a third model, mice were sensitized to the chemical compound toluene-2,4-diisocyanate (TDI). TDI is an industrial chemical which causes hypersensitive skin lesions and itching in exposed humans and animals. The physiological response to TDI is complex involving type 2 T lymphocytes, cytokines, mast cells, and neurons. Alkamides were applied to sensitized animals and then ear swelling and bouts of scratching were monitored.
A15 and TDI induced hypersensitivity. Mice were sensitized to toluene-2,4-diisocyanate (TDI) via abdominal application. Subsequently, a hypersensitive response was induced in the ear by direct application of TDI and ear thickness measured as a sign of inflammation.

RBL-2H3 cells [1] = experiment: Calcium assay, Fluo-4 (Example 3); format: cell-based, rat
Protocol: FIGS. 22A-22D. The alkamide fatty acid is necessary for inhibition of calcium influx. RBL-2H3 cells were plated overnight, incubated with Fluo-4 AM for 1 h, stimulated by 1 μM A23187 (FIG. 22A) or 5 ng/mL DNP-BSA (FIG. 22B) in the absence or presence of each alkamide, and fluorescence was read for 2 mins every 5 secs. Data are presented as the mean change in RFU of 4 experiments. Percent inhibition of calcium influx was calculated for A23187 (FIG. 22C) and DNP-BSA (FIG. 22D) stimulated cells at 2 mins. *P<0.05, **P<0.01, and ***P<0.001 one-way ANOVA with Dunnett's post hoc test compared to A15.
RBL-2H3 cells (1.0×10^5 cells) were incubated overnight in a 96 well black-wall clear bottom plate with or without IgE-DNP (0.1 μg/mL) at 37° C. with 5% CO2. The assay was performed using the Fluo-4 Direct™ Calcium Assay Kit according to the manufacturer's instruction. Briefly, cells were incubated with the Fluo-4 Direct calcium reagent loading solution for 30 minutes at 37° C. with 5% CO2 then 30 mins at room temperature. Prior to stimulation, the well baseline fluorescence was measured every 5 seconds over 1 minute using a BioTek Synergy HT microplate reader with 485/20 nm excitation and 528/20 nm emission filters. Cells were stimulated with 1 μM A23187 or 5 ng/mL DNP (IgE-DNP) in the absence or presence of each compound, and the fluorescence was measured every 5 seconds over 2 minutes. The change in fluorescence (ΔRT) was calculated as the sample fluorescence minus the baseline fluorescence for each well.

RBL-2H3 cells [2] = experiment: TNF-α ELISA, 18 hrs (Example 3); format: cell-based, rat; settings: 1 μM A23187, 18 hours
Protocol: FIGS. 25A-25B. […] RBL-2H3 cells were plated overnight and stimulated with 1 μM A23187 in the absence or presence of each alkamide for 18 h. Culture supernatants were analyzed for TNF-α levels by ELISA and experiments were performed in triplicate (FIG. 25A). Percent inhibition of TNF-α secretion for each alkamide listed in FIG. 25B. *P<0.05, **P<0.01, ***P<0.001, one-way ANOVA with Dunnett's post hoc test compared to vehicle (FIG. 25A) or A15 (FIG. 25B).
RBL-2H3 cells (1.0×10^5 cells) were incubated overnight in a 24 well plate at 37° C. with 5% CO2. Cells were washed with 1×PBS and stimulated with 1 μM A23187 for 18 hrs in the absence or presence of each compound. The cells were centrifuged (1200×g, 5 min) and the supernatants were collected. The concentration of TNF-α in the supernatants were determined using the TNF-α ELISA kit.

[3] = TDI-induced scratching bouts (itch); format: in vivo, mouse; settings: higher dose 1.0%
Text: as §1
The effects of A15 on TDI-induced itch. The itch response was also monitored in mice sensitized and treated with TDI. Treated mice were video recorded and the number of scratching bouts quantified by an observer.

RBL-2H3 cells [4] = experiment: β-Hexosaminidase release assay (Example 3); format: cell-based, rat
Protocol: FIGS. 21A-21D. The inhibition of degranulation is dependent on the length of the alkamide fatty acid chain. RBL-2H3 cells were plated overnight, stimulated with 1 μM A23187 (FIG. 21A) or 5 ng/mL DNP-BSA (FIG. 21B) for 1 h in the absence or presence of each compound. Graphs display the mean percent β-hex release. Data are presented as the mean of 4 experiments. Percent inhibition of degranulation of A23187 (FIG. 21C) or DNP-BSA (FIG. 21D) using data from A and B, respectively. *P<0.05, **P<0.01, ***P<0.001, one-way ANOVA with Dunnett's post hoc test compared to vehicle (A, B) or A15 (C, D).
RBL-2H3 cells (1.0×10^5 cells) were incubated with or without 0.1 μg/mL of IgE-DNP overnight in a 96 well plate at 37° C. with 5% CO2. The cells were washed with Tyrode's buffer and assayed with few modifications (Kuehn, Radinger, & Gilfillan, 2010). Briefly, IgE-DNP sensitized cells were stimulated 1 hour with 5 ng/mL of DNP-BSA in the absence or presence of each compound and incubated at 37° C. with 5% CO2. For experiments using only A23187 as the stimulant, cells were washed with Tyrode's buffer and stimulated 1 hour with 1 μM A23187 in the absence or presence of each compound and incubated at 37° C. with 5% CO2. The stimulated cells were centrifuged at 1200×g for 5 minutes. The supernatant or cell lysate (30 μL) was incubated with 3.4 mg/mL of p-NAG (10 μL) for 1 hour at 37° C. The reaction was terminated by addition of 0.2 M sodium carbonate (pH 10) and the absorbance was read at OD405 nm on a BioTek Synergy HT microplate reader. The total 3-hexosaminidase released from the cell was calculated as the difference between the OD of the supernatant and blank plus the difference between the OD of the lysate and blank. The percent β-hexosaminidase released from the cell was calculated as the difference between the OD of the supernatant and blank divided by the total β-hexosaminidase released from the cell multiplied by 100: ODsupernatant−ODblank/[(ODlysate−ODblank)+(ODsupernatant−ODblank)]*100.

## CCCCCCCC(=O)NCC(C)C [YM8-85, N-Isobutyloctanamide]
TRPA1
  DRG neuron calcium response to mustard (TRPA1 agonist): inhibit
TDI-induced ear swelling; 0.1%, first experiment (FIG. 13A)
  TDI ear swelling (ear thickness): significant responses were not seen
TDI-induced ear swelling; 0.1%, repeated experiment (FIG. 13B)
  TDI ear swelling (ear thickness): neither A15 nor YM8-85 at 0.1% produced significant inhibition
TDI-induced ear swelling; 1%, first experiment (FIG. 13A)
  TDI ear swelling (ear thickness): significant responses were not seen
RBL-2H3 cells [1]; 5 ng/mL DNP-BSA, at 2 minutes
  percent inhibition of calcium influx: 49%
RBL-2H3 cells [1]; 1 μM A23187, at 2 minutes
  percent inhibition of calcium influx: 91%
RBL-2H3 cells [2]
  percent inhibition of TNF-α secretion: 43%
[3]
  scratching bouts in TDI treated mice: significant inhibition of scratching
RBL-2H3 cells [4]; 5 ng/mL DNP-BSA, 1 hour
  percent inhibition of degranulation: 60%
RBL-2H3 cells [4]; 1 μM A23187, 1 hour
  percent inhibition of degranulation: 64%
